Patent US11827917B1, “Methods for the conversion of fermentable sugars to ethanol” (Colorado State University Research Foundation, priority 2020, dated 2023)
Marks after values point to notes of the source that are not given here.

Legend:
Assay type in all cases: cell-based, Saccharomyces cerevisiae
[1] = system: S. cerevisiae ATCC 26603; assay: Serum-bottle cultivation in YPD, different yeast strains; details: 0.2%
Experimental: (§1) Analytical methods: Cell growth was evaluated by monitoring OD600 and cell dry mass concentration. For dry mass measurements, 1.0 mL of culture was transferred to a pre-dried and pre-weighed 2-mL centrifuge tube. The tubes were centrifuged for 10 min at 14000 rpm using a microcentrifuge, and then the cell pellets were dried in an oven for 3 days at 65° C. The cell dry mass was determined by subtracting the initial tube mass from the dried mass of tube with cells. The concentrations of glucose, ethanol, and glycerol were measured via HPLC (Shimadzu LC20A series) outfitted with a refractive index detector and using an Aminex HPX-87H (300×7.8 mm) organic acid column and Cation H+ guard cartridge (Bio Rad Laboratories, Hercules, CA). The column was maintained at 65° C. and the mobile phase was 5 mM sulfuric acid with a flow rate of 0.6 mL/min. Standard compound solutions were used to calibrate the HPLC. Each sample was analyzed three times by HPLC.
(§2) Procedure: Seven yeast strains (S. cerevisiae ATCC 26603, S. cerevisiae JAY 238, S. cerevisiae JAY 240, S. cerevisiae JAY 241, S. paradoxus JAY 1502, S. kudriavzezii JAY 1503, and S. mikatae JAY 1504) were pre-cultured in 30 mL of YPD medium in 100 mL serum bottle overnight in a shaker at 30° C. and 200 rpm. The precultured yeast cells of each strains were collected and washed twice. Finally, the cell pellet was resuspended in about 10 mL 0.8% (w/v) NaCl and the OD600 measured. TyrOH, PheOH, and TrpOH were added to 30 mL of YPD medium in 100-mL serum bottles at 0.2% (w/v) respectively. The same amount of DMSO was added in YPD medium and served as control to the TrpOH and TyrOH treatments. The prepared yeast cells were added to obtain the initial cell concentration at OD600=0.2. The serum bottles were sealed and cultured in a shaker at 30° C. and 200 rpm for 24 h. There were three biological replicates for each treatment.

[2] = system: S. cerevisiae JAY 238; assay: as above; details: 0.2%
Experimental: as §1, §2

[3] = system: S. cerevisiae JAY 240; assay: as above; details: 0.2%
Experimental: as §1, §2

[4] = system: S. cerevisiae JAY 241; assay: as above; details: 0.2%
Experimental: as §1, §2

[5] = system: S. cerevisiae JAY 270; assay: Serum-bottle cultivation in YPD: biomass, glycerol, ethanol yields
Experimental: Procedure: Cultivations in serum bottles were used to determine the effect of the best-performing screened chemicals on the ethanol yield. S. cerevisiae JAY 270 was pre-cultured in 100 mL of YPD medium in 200-mL serum bottles overnight in a shaker at 30° C. and 200 rpm. The precultured yeast cells were collected and washed twice as described above. The cell pellet was resuspended in about 10 mL of 0.8% (w/v) NaCl and the cell concentration was estimated as OD600. TyrOH, PheOH, and TrpOH were added to 30 mL of YPD medium in 100-mL serum bottles at 0.05% and 0.2% respectively. The same amount of DMSO was added to YPD medium to serve as the control for TrpOH and TyrOH treatments. The bottles were inoculated with the prepared yeast cells to obtain an initial cell concentration of OD600=0.2. The serum bottles were sealed and cultured in a shaker at 30° C. and 200 rpm for 24 h. Each condition had three biological replicates.
as §1

[6] = S. cerevisiae ATCC 26603, YPD (Table 9B)
[7] = S. cerevisiae JAY 238, YPD (Table 9B)
[8] = S. cerevisiae JAY 240, YPD (Table 9B)
[9] = S. cerevisiae JAY 241, YPD (Table 9B)
[10] = 0.05% (w/v), YPD, serum bottles

Structure (SMILES): OCCc1ccc(O)cc1 [TyrOH, Tyrosol]
- Biomass Yield ([1]; S. cerevisiae ATCC 26603): 0.056 ± 0.003 g/g
- Biomass yield % change vs. control ([1]; S. cerevisiae ATCC 26603): −21* %
- EtOH yield ([1]; S. cerevisiae ATCC 26603): 0.467 ± 0.015 g/g
- EtOH yield % change vs. control ([1]; S. cerevisiae ATCC 26603): +7.7* %
- Glycerol yield ([1]; S. cerevisiae ATCC 26603): 0.064 ± 0.006 g/g
- Glycerol yield % change vs. control ([1]; S. cerevisiae ATCC 26603): −12* %
- DCW ([1]; S. cerevisiae ATCC 26603, YPD): 1.53 mg
- DCW Δ vs. ref ([1]; S. cerevisiae ATCC 26603, YPD): 86.8%
- OD600 ([1]; S. cerevisiae ATCC 26603, YPD): 1.34
- OD600 Δ vs. ref ([1]; S. cerevisiae ATCC 26603, YPD): 95.5%
- Biomass Yield [1, 6]: 0.056 + 0.003 g/g
- Biomass yield Δ vs. ref [1, 6]: −20.6%
- Ethanol yield [1, 6]: 0.467 ± 0.015 g/g
- Ethanol yield Δ vs. ref [1, 6]: 7.7%
- Glycerol yield [1, 6]: 0.064 ± 0.006 g/g
- Glycerol yield Δ vs. ref [1, 6]: −11.82%
- Biomass Yield ([2]; S. cerevisiae JAY 238): 0.058 ± 0.001 g/g
- Biomass yield % change vs. control ([2]; S. cerevisiae JAY 238): −14* %
- EtOH yield ([2]; S. cerevisiae JAY 238): 0.455 ± 0.016 g/g
- EtOH yield % change vs. control ([2]; S. cerevisiae JAY 238): +8.3* %
- Glycerol yield ([2]; S. cerevisiae JAY 238): 0.036 ± 0.002 g/g
- Glycerol yield % change vs. control ([2]; S. cerevisiae JAY 238): −8.3%
- DCW ([2]; S. cerevisiae JAY 238, YPD): 2.35 mg
- DCW Δ vs. ref ([2]; S. cerevisiae JAY 238, YPD): 83.9%
- OD600 ([2]; S. cerevisiae JAY 238, YPD): 1.99
- OD600 Δ vs. ref ([2]; S. cerevisiae JAY 238, YPD): 85.0%
- Biomass Yield [2, 7]: 0.058 + 0.001 g/g
- Biomass yield Δ vs. ref [2, 7]: −13.9%
- Ethanol yield [2, 7]: 0.455 ± 0.016 g/g
- Ethanol yield Δ vs. ref [2, 7]: 8.3%
- Glycerol yield [2, 7]: 0.036 ± 0.002 g/g
- Glycerol yield Δ vs. ref [2, 7]: −8.30%
- Biomass Yield ([3]; S. cerevisiae JAY 240): 0.061 ± 0.002 g/g
- Biomass yield % change vs. control ([3]; S. cerevisiae JAY 240): −16* %
- EtOH yield ([3]; S. cerevisiae JAY 240): 0.446 ± 0.022 g/g
- Glycerol yield ([3]; S. cerevisiae JAY 240): 0.034 ± 0.001 g/g
- Glycerol yield % change vs. control ([3]; S. cerevisiae JAY 240): −15* %
- DCW ([3]; S. cerevisiae JAY 240, YPD): 2.65 mg
- DCW Δ vs. ref ([3]; S. cerevisiae JAY 240, YPD): 86.9%
- OD600 ([3]; S. cerevisiae JAY 240, YPD): 2.09
- OD600 Δ vs. ref ([3]; S. cerevisiae JAY 240, YPD): 83.9%
- Biomass Yield [3, 8]: 0.061 + 0.002 g/g
- Biomass yield Δ vs. ref [3, 8]: −15.7%
- Ethanol yield [3, 8]: 0.446 ± 0.022 g/g
- Ethanol yield Δ vs. ref [3, 8]: 10.1%
- Glycerol yield [3, 8]: 0.034 ± 0.001 g/g
- Glycerol yield Δ vs. ref [3, 8]: −14.77%
- Biomass Yield ([4]; S. cerevisiae JAY 241): 0.049 ± 0.000 g/g
- Biomass yield % change vs. control ([4]; S. cerevisiae JAY 241): −16* %
- EtOH yield ([4]; S. cerevisiae JAY 241): 0.422 ± 0.013 g/g
- Glycerol yield ([4]; S. cerevisiae JAY 241): 0.043 ± 0.000 g/g
- Glycerol yield % change vs. control ([4]; S. cerevisiae JAY 241): −23* %
- DCW Δ vs. ref ([4]; S. cerevisiae JAY 241, YPD): 88.7%
- OD600 ([4]; S. cerevisiae JAY 241, YPD): 1.68
- OD600 Δ vs. ref ([4]; S. cerevisiae JAY 241, YPD): 84.0%
- Biomass Yield [4, 9]: 0.049 + 0.000 g/g
- Biomass yield Δ vs. ref [4, 9]: −15.7%
- Ethanol yield [4, 9]: 0.422 ± 0.013 g/g
- Ethanol yield Δ vs. ref [4, 9]: 10.4%
- Glycerol yield [4, 9]: 0.043 ± 0.000 g/g
- Glycerol yield Δ vs. ref [4, 9]: −23.39%
- Biomass Yield [5, 10]: 0.095 + 0.001 g/g
- Biomass yield % change vs. control [5, 10]: −5%
- EtOH yield [5, 10]: 0.38 ± 0.01 g/g
- EtOH yield % change vs. control [5, 10]: 0.8%
- Glycerol yield [5, 10]: 0.031 ± 0.001 g/g
- Glycerol yield % change vs. control [5, 10]: −9%
- Biomass yield vs. reference ([5]; 0.05%, YPD, serum bottles): −5.0%
- Ethanol yield ([5]; 0.05%, YPD, serum bottles): 0.38 ± 0.01 g/g
- Ethanol yield vs. reference ([5]; 0.05%, YPD, serum bottles): 0.8%
- Glycerol yield ([5]; 0.05%, YPD, serum bottles): 0.031 ± 0.001 g/g
- Glycerol yield vs. reference ([5]; 0.05%, YPD, serum bottles): −9.0%
- OD600 ([5]; 0.05%, YPD, serum bottles): 3.66
- Effect on yeast cell growth ([5]; 0.2%): reduced yeast cell growth
- Biomass Yield ([5]; 0.2% (w/v), YPD, serum bottles): 0.085 + 0.003 g/g
- Biomass yield % change vs. control ([5]; 0.2% (w/v), YPD, serum bottles): −15* %
- EtOH yield ([5]; 0.2% (w/v), YPD, serum bottles): 0.40 ± 0.00 g/g
- EtOH yield % change vs. control ([5]; 0.2% (w/v), YPD, serum bottles): 6.9* %
- Glycerol yield ([5]; 0.2% (w/v), YPD, serum bottles): 0.027 ± 0.000 g/g
- Glycerol yield % change vs. control ([5]; 0.2% (w/v), YPD, serum bottles): −20* %
- Biomass yield vs. reference ([5]; 0.2%, YPD, serum bottles): −15.3%
- Effect on ethanol yield ([5]; 0.2%, YPD, serum bottles): increased the ethanol yield significantly
- Ethanol yield ([5]; 0.2%, YPD, serum bottles): 0.40 ± 0.00 g/g
- Ethanol yield vs. reference ([5]; 0.2%, YPD, serum bottles): 6.9%
- Glycerol yield ([5]; 0.2%, YPD, serum bottles): 0.027 ± 0.000 g/g
- Glycerol yield vs. reference ([5]; 0.2%, YPD, serum bottles): −19.9%
- OD600 ([5]; 0.2%, YPD, serum bottles): 3.27
